This note sets out measurements from US11130780B2, “Inhibitors of growth factor activation enzymes” (Washington University, priority 2015, dated 2021).

Broadly, the EC50 is the concentration giving half of the maximal effect.

The target in assay [1] is T1, HGFA (Homo sapiens, UniProt Q04756).
T1 construct: His6 tag (N); seven amino acid spacer and seven amino acid TEV cleavage site (N); Honey Bee melittin signal peptide (N); made in house; host or cells: High 5 insect cells (baculovirus; virus raised in Sf9)
T1 sequence (Q04756 373-655): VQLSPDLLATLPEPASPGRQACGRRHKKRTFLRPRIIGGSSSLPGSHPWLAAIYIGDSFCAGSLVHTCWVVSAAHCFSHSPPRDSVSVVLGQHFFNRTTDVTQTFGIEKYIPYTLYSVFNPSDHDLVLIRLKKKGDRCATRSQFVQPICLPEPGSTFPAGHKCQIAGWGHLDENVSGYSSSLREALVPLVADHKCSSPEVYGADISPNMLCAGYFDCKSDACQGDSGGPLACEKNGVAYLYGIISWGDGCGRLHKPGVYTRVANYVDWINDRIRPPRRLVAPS
The assay is described as follows: HGFA competition assay of inhibitor and substrate. The format is biochemical. The following applies: 0, 0.25, 0.5, 1.0 μM inhibitor; Pefachrome. The protocol:
From the plots of the mean reaction velocity versus substrate concentration and the Michaelis-Menten enzyme kinetics equation within GraphPad Prism version 6.04 for Windows, the reaction Vmax and subsequent Km for each concentration of inhibitor was determined as shown in the FIG. 1.

For assay [2], the target named is T1, HGFA. Nature of the assay: Dilution recovery experiments with HGFA. The assay is classed as biochemical. The following applies: rapid 1:350 dilution; Boc-QLR-AMC 250 μM. The protocol: After incubating for 20 minutes at room temperature, these reactions were diluted rapidly (1:350) in TNC buffer containing 250 μM Boc-QLR-AMC substrate (˜7 times Kin). Activity was monitored by recording the change in fluorescence (excitation at 380 nm and emission at 460 nn) over time in a Biotek Synergy 2 plate reader. GraphPad Prism was used to plot the change in fluorescence over time.

Assay [3] has as its target T1, HGFA. Nature of the assay: Biochemical assay for proteolysis of pro-HGF by HGFA. The following applies: immunoblot; inhibitors 0-12.5 μM; 1 nM HGFA. On the procedure:
(§1) In order to determine efficiency of our recombinant HGFA we performed a concentration response of HGFA using a fixed concentration of pro-HGF and pro-MSP.
(§2) After 30 minutes incubation at room temperature (25° C.), 25 ng of pro-HGF (R&D Systems, NKG011306A) was added. […] Proteins were transferred to Millipore Immobilon-P membranes (Billerica, Mass.) and then immunoblotted at 4° C. with anti-HGF antibody (R&D Systems, AF-294-NA) and HRP conjugated donkey anti-goat IgG (Santa Cruz, SC-2020) diluted 1:500 and 1:5000 in 5% milk/TBST (5% Carnation nonfat dried milk/10 mM Tris, 150 mM NaCl, 0.05% TWEEN 20, pH 8.0), respectively. Membranes were washed in TBST, immersed in Millipore Luminata Crescendo Westem-HRP Substrate for 5 minutes, and then exposures made on a BioRad ChemiDoc MP Imaging System (Hercules, Calif.). For pro-MSP proteolysis assays, the procedures were similar, except that the HGFA concentration was 75 nM, pro-MSP (R&D Systems ZN081306A) concentration was 50 ng per reaction, and 1:500 dilution of anti-MSP antibody (R&D Systems, AF352) was used for MSP detection during immunoblotting.
A general note: A western blot detects proteins with antibodies after separation by electrophoresis.

For assay [4], the target named is T1, HGFA. The assay is described as follows: Biochemical assay for proteolysis of pro-MSP by HGFA. The following applies: immunoblot; inhibitors 0-12.5 μM. The protocol: as §1, §2
The subject of assay [5] is c-MET phosphorylation in MDA-MB-231 cells. Nature of the assay: c-MET phosphorylation (Y1234/1235) in MDA-MB-231 cells treated with HGFA processed pro-HGF. The assay is classed as cell-based, human. The following applies: pro-HGF/HGFA reactions, read-out: EC50, inhibition of c-MET phosphorylation. From the text: To show the inhibition provided by the tetrapeptide compounds would have effects on cell signaling through c-MET kinase, a phosphorylation assay using the invasive breast cancer cell line, MDA-MB-231 was developed. This cell line has high expression of c-MET and pro-HGFA but not pro-HGF.
MDA-MB-231 cells were maintained in RPMI medium (Sigma-Aldrich R8758, St. Louis, Mo.) containing 10% fetal bovine serum (Sigma F2442) and 1× Penicillin/Streptomycin (Pen/Strep) antibiotics (Thermo Fisher SV30010). […] After 18 hours, cells were switched to fresh starve media and then treated with HGFA Proteolysis reactions containing 1 nM HGFA, 50 ng pro-HGF and various amounts of inhibitors. […] Lysate aliquots were mixed with reducing SDS gel loading buffer and run on 10% PAGE.
Immunoblots were performed as described previously, except primary antibodies, anti-phospho cMet (Cell Signaling, CS3077) and anti-total cMet (Cell Signaling, CS3127) were used and diluted in 5% BSA/TBST. Secondary antibodies, HRP-anti rabbit antibody (CS7074) and HRP-anti mouse (CS7076) were used, respectively. All antibodies were used at a 1:1000 dilution. Images were obtained and quantitated using BioRad ChemiDoc MP Imaging System. cMet phosphorylation signals were normalized using the total cMet signals and % inhibition calculated using the ratio of inhibited versus uninhibited HGFA Proteolytic reactions. […]

The test system of assay [6] is RON phosphorylation in T47D cells. The assay is described as follows: RON phosphorylation sandwich ELISA in T47D cells. The assay is classed as cell-based. The following applies: HGFA-mediated pro-MSP stimulation. On the procedure: Detection and quantification of pRON in T47D cells was performed using a sandwich ELISA assay. RON capture antibody (R&D Systems, AF691) was immobilized on high protein binding 96-well plates. Next, cell lysates are added to wells, followed by incubation with an anti-phosphotyrosine-HRP antibody and then addition of a TMB substrate. Optical density of wells was determined by reading plates at 450 nm in a plate reader.
In general terms: An ELISA detects its analyte on a solid surface through an enzyme-linked reagent.

Consider `CC(=O)N[C@@H](CCCCN)C(=O)N[C@@H](CCC(N)=O)C(=O)N[C@@H](CC(C)C)C(=O)N[C@@H](CCCNC(=N)N)C(=O)c1nccs1` [Compound 5, Ac-KQLR(SEQ ID NO: 1)-kt], for which the “mode of inhibition versus substrate” value in assay [1] is recorded as “competitive”. Moreover, the “reversibility of HGFA inhibition” value in assay [2] is given as “reversible inhibitor”. The “inhibition of pro-HGF activation by HGFA” value in assay [3] was “dose-dependent inhibition”. Moreover, the “inhibition of pro-MSP proteolysis by HGFA” value in assay [4] is recorded as “dose-dependent inhibition”.

For `CC(=O)N[C@@H](CCCCN)C(=O)N[C@@H](CCCNC(=N)N)C(=O)N[C@@H](CC(C)C)C(=O)N[C@@H](CCCNC(=N)N)C(=O)c1nccs1` [Compound 5g, Ac-KRLR(SEQ ID NO: 8)-kt], the “inhibition of pro-HGF activation by HGFA” value in assay [3] is given as “dose-dependent inhibition”. The “inhibition of pro-MSP proteolysis by HGFA” value in assay [4] is reported as “dose-dependent inhibition”. Also, in assay [5], the EC50 is 180 nM.

Consider `CC(=O)N[C@@H](Cc1c[nH]c2ccccc12)C(=O)N[C@@H](CCCNC(=N)N)C(=O)N[C@@H](CC(C)C)C(=O)N[C@@H](CCCNC(=N)N)C(=O)c1nccs1` [Compound 5h, Ac-WRLR(SEQ ID NO: 9)-kt], for which the “inhibition of pro-HGF activation by HGFA” value in assay [3] is given as “dose-dependent inhibition”. Moreover, the “inhibition of pro-MSP proteolysis by HGFA” value in assay [4] is given as “dose-dependent inhibition”.

Regarding `N=C(N)c1ccc2cc(OC(=O)c3ccc(N=C(N)N)cc3)ccc2c1` [Nafamostat, reference compound], the “inhibition of pro-HGF activation by HGFA” value in assay [3] was “dose-dependent inhibition”. The “inhibition of pro-MSP proteolysis by HGFA” value in assay [4] is recorded as “dose-dependent inhibition”. Also, in assay [6], the “RON phosphorylation (pRON)” value was “reduces pRON to background levels”.

In the case of `CC(=O)N[C@@H](CO)C(=O)N[C@@H](CCCNC(=N)N)C(=O)N[C@@H](CC(C)C)C(=O)N[C@@H](CCCNC(=N)N)C(=O)c1nccs1` [Compound 6e, Ac-SRLR(SEQ ID NO: 15)-kt], the “inhibition of pro-MSP proteolysis by HGFA” value in assay [4] is recorded as “dose-dependent inhibition”.
